Literature values, collected in patent publication US10688070B2, “Serine glycerophospholipid preparation and method for treatment of seizures” (ENZYMOTEC LTD., priority 2013, dated 2020).

Test system: Valproate adverse events (hepatotoxicity)
Details: in vivo

In the case of CC/C=C\C/C=C\C/C=C\C/C=C\C/C=C\CCCC(=O)O [EPA, Eicosapentanoic acid], the “Effect on adverse events of Valproate” value is listed as “did not reveal the same effect”.
